≈ marks a conversion by molar mass, not a printed value. Where “and” joins values, the source holds several entries; their conditions need not be identical. Identical values can stand only once. Like-named read-outs stand apart in the source and are kept apart here.
Tests used:
Msm 700084 = assay: microbe, parasite or virus in culture; format: cell-based; conditions: Mycolicibacterium smegmatis, 700084; read-out: MIC Msm 700084
[1] = system: Mycobacterium intracellulare; assay: microbe, parasite or virus in culture; format: cell-based
Mycobacterium fortuitum = assay: microbe, parasite or virus in culture; format: cell-based
[2] = system: M. tuberculosis H37Rv (ATCC 27294); assay: microbe, parasite or virus in culture; format: cell-based
[3] = format: in vitro ADME, Mice; conditions: clearance in microsomes
Summary of the method: (§1)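 Metabolic depletion in liver microsomes (0.5 mg/ml, 1 mM NADPH, 37 °C) starting from 1 µmol/l test compound, sampled at multiple times with acetonitrile quench. LC-MS/MS quantitation; half-life converted to %Qh.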

[4] = biological target: endogenous ClpC1 in Msm #607 cells (Mycolicibacterium smegmatis, UniProt A0R574); format: cell-based, M. smegmatis; conditions: for ClpC1/Total protein / ClpC1 peak area / Total protein: well replicates of independent experiments
[5] = format: in vitro ADME, Rat
Summary of the method: as §1

Msm 607 = assay: microbe, parasite or virus in culture; format: cell-based
[6] = biological target: ClpC1-NTD substrate, M. tuberculosis ClpC1P1P2 (Mycobacterium tuberculosis, UniProt P9WPC9); assay: biochemical; format: biochemical; conditions: Mtb; mean of the measurements; read-out: DC50, Mean
[7] = biological target: ClpC1 NTD protein (M. tuberculosis) (Mycobacterium tuberculosis, UniProt P9WPC9); assay: biochemical; format: binding; conditions: SPR
[8] = system: non-replicating cells of Mtb H37Rv; format: cell-based, Mycobacterium tuberculosis; conditions: for Supplementary Figure 2 dose-response value, starvation-induced non-replicating H37Rv cells: three replicate columns
[9] = Experiment 2, three replicate columns

Chain of ClpC1 NTD protein (M. tuberculosis) (P9WPC9 1-156, looked up, natural form): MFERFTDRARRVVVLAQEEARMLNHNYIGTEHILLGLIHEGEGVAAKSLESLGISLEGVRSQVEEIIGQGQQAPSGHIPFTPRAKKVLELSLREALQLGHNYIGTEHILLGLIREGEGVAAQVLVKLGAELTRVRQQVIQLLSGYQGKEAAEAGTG
Chain of endogenous ClpC1 in Msm #607 cells (A0R574 whole entry): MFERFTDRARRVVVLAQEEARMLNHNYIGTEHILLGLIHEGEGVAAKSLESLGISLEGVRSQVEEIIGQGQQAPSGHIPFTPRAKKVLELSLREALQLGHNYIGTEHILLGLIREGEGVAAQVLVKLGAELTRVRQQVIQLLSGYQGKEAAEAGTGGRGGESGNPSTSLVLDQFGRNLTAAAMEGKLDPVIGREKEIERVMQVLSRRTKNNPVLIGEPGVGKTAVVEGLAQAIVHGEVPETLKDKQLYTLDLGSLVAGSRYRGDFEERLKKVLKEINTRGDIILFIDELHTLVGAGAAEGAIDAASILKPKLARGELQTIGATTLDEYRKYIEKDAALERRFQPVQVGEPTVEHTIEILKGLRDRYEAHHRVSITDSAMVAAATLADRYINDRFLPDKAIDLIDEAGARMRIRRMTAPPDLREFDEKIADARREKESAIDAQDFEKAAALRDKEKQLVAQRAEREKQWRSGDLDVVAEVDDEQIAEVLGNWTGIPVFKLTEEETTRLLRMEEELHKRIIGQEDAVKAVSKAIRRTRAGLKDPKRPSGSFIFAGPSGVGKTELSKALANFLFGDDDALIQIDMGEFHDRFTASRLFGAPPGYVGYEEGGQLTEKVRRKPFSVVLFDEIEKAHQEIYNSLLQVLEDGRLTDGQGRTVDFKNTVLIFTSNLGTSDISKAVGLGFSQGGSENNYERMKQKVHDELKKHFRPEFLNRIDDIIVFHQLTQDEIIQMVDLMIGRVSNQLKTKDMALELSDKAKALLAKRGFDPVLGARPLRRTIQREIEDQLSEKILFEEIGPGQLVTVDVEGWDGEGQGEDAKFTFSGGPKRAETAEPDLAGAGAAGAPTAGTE
Chain of ClpC1-NTD substrate, M. tuberculosis ClpC1P1P2 (P9WPC5 whole entry): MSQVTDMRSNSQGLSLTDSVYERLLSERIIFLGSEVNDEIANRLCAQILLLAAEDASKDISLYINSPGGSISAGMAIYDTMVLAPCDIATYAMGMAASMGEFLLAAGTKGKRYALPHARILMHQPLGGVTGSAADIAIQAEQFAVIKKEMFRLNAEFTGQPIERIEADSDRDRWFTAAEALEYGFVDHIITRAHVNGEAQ
Chain of ClpC1-NTD substrate, M. tuberculosis ClpC1P1P2 (P9WPC9 whole entry): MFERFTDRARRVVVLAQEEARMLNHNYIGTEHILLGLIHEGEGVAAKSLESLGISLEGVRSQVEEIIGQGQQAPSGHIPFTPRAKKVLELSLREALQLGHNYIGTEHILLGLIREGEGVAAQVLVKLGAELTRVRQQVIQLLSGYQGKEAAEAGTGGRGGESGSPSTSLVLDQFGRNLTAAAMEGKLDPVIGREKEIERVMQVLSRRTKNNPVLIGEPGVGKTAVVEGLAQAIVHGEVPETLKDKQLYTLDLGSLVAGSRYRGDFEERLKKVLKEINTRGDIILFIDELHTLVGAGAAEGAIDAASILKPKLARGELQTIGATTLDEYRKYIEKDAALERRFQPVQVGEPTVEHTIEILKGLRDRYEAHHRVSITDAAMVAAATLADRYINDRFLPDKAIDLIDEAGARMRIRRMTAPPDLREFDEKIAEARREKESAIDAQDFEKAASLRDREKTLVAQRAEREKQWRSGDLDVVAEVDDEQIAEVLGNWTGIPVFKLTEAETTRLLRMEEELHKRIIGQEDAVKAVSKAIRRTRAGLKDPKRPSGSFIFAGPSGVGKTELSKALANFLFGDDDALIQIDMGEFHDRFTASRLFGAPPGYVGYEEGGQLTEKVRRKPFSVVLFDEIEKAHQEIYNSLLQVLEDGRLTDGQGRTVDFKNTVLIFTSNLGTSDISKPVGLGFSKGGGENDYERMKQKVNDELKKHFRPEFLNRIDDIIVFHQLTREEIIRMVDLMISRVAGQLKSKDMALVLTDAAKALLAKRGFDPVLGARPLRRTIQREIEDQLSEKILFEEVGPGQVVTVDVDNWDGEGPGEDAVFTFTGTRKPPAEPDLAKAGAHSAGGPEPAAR
Chain of ClpC1-NTD substrate, M. tuberculosis ClpC1P1P2 (P9WPC3 whole entry, further chain): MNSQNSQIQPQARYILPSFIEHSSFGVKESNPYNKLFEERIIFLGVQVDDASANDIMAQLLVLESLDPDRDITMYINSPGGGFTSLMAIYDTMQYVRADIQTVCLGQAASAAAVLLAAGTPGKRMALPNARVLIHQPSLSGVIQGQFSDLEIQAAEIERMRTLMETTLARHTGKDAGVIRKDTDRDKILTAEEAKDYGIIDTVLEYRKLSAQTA

## COC(c1ccccc1)C1NC(=O)C(C)NC(=O)C(CC(C)CO)N(C)C(=O)C(Cc2cn(Cc3cn(CCOCCOCCOCCOCCn4cc(Cn5cc(CC6NC(=O)C(C(C)C)NC(=O)C(CC(C)C)N(C)C(=O)C(C(C)C)NC(=O)C(C(OC)c7ccccc7)NC(=O)C(C)NC(=O)C(CC(C)CO)N(C)C6=O)c6ccccc65)nn4)nn3)c3ccccc23)NC(=O)C(C(C)C)NC(=O)C(CC(C)C)N(C)C(=O)C(C(C)C)NC1=O (stereo not drawn) [Compound 8]
Msm 700084
  MIC: 8.3 ± 5.1 µM (≈ 18 µg/mL)
[1]; Experiment 1, listed as 8 (UdSBI-0545), read-out: MIC Mycobacterium intracellulare
  MIC: >50 µM
[1]; [9]
  MIC (µg/ml) Mycobacterium intracellulare: >108.53 µg/mL
[1]; Experiment 2, three replicate columns, read-out: MIC (µM) Mycobacterium intracellulare
  MIC: >50 µM
[1]; Mycobacterium intracellulare, Experiment 1, read-out: MIC Mycobacterium intracellulare
  MIC: > 109 µg/mL
[1]; Mycobacterium intracellulare, Experiment 2, three replicate columns, read-out: MIC (µM) Mycobacterium intracellulare
  MIC: > 50 µM
[1]; Mycobacterium intracellulare, Experiment 2, three replicate columns, read-out: MIC (µg/ml) Mycobacterium intracellulare
  MIC: > 109 µg/mL
[1]; Mycobacterium intracellulare, mean ± SD, read-out: MIC Mycobacterium intracellulare
  MIC: > 50 µM
Mycobacterium fortuitum; Experiment 1, listed as 8 (UdSBI-0545), read-out: MIC Mycobacterium fortuitum
  MIC: >50 µM
Mycobacterium fortuitum; [9]
  MIC (µg/ml) Mycobacterium fortuitum: >108.53 µg/mL
Mycobacterium fortuitum; Experiment 2, three replicate columns, read-out: MIC (µM) Mycobacterium fortuitum
  MIC: >50 µM
Mycobacterium fortuitum; Mycolicibacterium fortuitum, Experiment 1, read-out: MIC Mycobacterium fortuitum
  MIC: > 109 µg/mL
Mycobacterium fortuitum; Mycolicibacterium fortuitum, Experiment 2, three replicate columns, read-out: MIC (µM) Mycobacterium fortuitum
  MIC: > 50 µM
Mycobacterium fortuitum; Mycolicibacterium fortuitum, Experiment 2, three replicate columns, read-out: MIC (µg/ml) Mycobacterium fortuitum
  MIC: > 109 µg/mL
Mycobacterium fortuitum; Mycolicibacterium fortuitum, mean ± SD, read-out: MIC Mycobacterium fortuitum
  MIC: > 50 µM
[2]; Mycobacterium tuberculosis, M. tuberculosis H37Rv 27294, single well replicates, read-out: MIC
  MIC: 0.098 µM (≈ 0.213 µg/mL)
[2]; Mycobacterium tuberculosis, M. tuberculosis H37Rv strain, read-out: MIC Mtb H37Rv Mean ± SD
  MIC: 0.4 ± 0.4 µM (≈ 0.868 µg/mL)
[2]; Mycobacterium tuberculosis, Mtb H37Rv (Supplementary Table 2), read-out: MIC Mtb
  MIC: 0.4 ± 0.4 µM (≈ 0.868 µg/mL)
[2]; Mycobacterium tuberculosis, Mtb H37Rv, mean ± SD, n = 3 well replicates, read-out: MIC
  MIC: 0.2 ± 0.1 µM (≈ 0.434 µg/mL)
[2]; Mycobacterium tuberculosis, Set 1, read-out: MIC (Mtb H37Rv) Set 1
  MIC: 0.1 µM and 0.21 µg/mL
[2]; Mycobacterium tuberculosis, Set 2, read-out: MIC (Mtb H37Rv) Set 2
  MIC: 0.05 µM and 0.1 µg/mL
[2]; Mycobacterium tuberculosis, Set 3, done at a different day than Set 1 and Set 2, read-out: MIC (Mtb H37Rv) Set 3
  MIC: 0.1 µM and 0.21 µg/mL
[2]; Mycobacterium tuberculosis, individual example (Supplementary Table 11), read-out: MIC Mtb H37Rv
  MIC: 0.1 µM and 0.2 µg/mL
[2]; Mycobacterium tuberculosis, mean of 3 experiments +/- SD, unit taken from the sets above in the same table, read-out: MIC data (Mtb H37Rv) (+/- SD)
  MIC: 0.08 µM and 0.17 µg/mL
[2]; individual measurements (source data), listed as 8 (UdSBI-0545), read-out: Mtb MIC
  MIC: 0.780 µM (2×) and 0.097 µM (2×)
[3]
  Microsomal Stability Mice: 72 %Qh
[4]; 24 hours, value of the earlier manuscript version quoted in the peer review file, read-out: average DC50, ClpC1 degradation
  DC50: 571 nM
[4]; Msm #607, 24 h of incubation, read-out: average DC50, endogenous ClpC1 degradation
  DC50: 570 ± 400 nM
[4]; conc. 0.00038147 µM
  ClpC1/Total protein: 0.2282 and 0.267 and 0.2648 and 0.2027 and 0.212 and 0.2298 and 0.7429 and 0.8229 and 0.7712
  ClpC1 peak area: 294811 and 344226 and 322628 and 390018 and 426373 and 358944 and 302120 and 328285 and 319637
  Total protein: 1323644 and 1229496 and 1207050 and 1454716 and 1623647 and 1404254 and 524970 and 518103 and 465460
[4]; conc. 0.00305176 µM
  ClpC1/Total protein: 0.2394 and 0.2569 and 0.2557 and 0.2218 and 0.1962 and 0.1042 and 0.78 and 0.7556 and 0.8129
  ClpC1 peak area: 298033 and 275548 and 121574 and 410944 and 384208 and 424052 and 320906 and 252067 and 328696
  Total protein: 1340459 and 981268 and 1285339 and 1343857 and 1404470 and 1166366 and 526872 and 508500 and 521664
[4]; conc. 0.0244141 µM
  ClpC1/Total protein: 0.2203 and 0.2456 and 0.2539 and 0.1932 and 0.1901 and 0.2179 and 0.789 and 0.7808 and 0.8172
  ClpC1 peak area: 219991 and 270896 and 315004 and 406280 and 373553 and 423254 and 300752 and 349284 and 304692
  Total protein: 1364922 and 1422232 and 1199890 and 1138728 and 1425365 and 1445718 and 514950 and 478415 and 517944
[4]; conc. 0.195312 µM
  ClpC1/Total protein: 0.1965 and 0.2082 and 0.2171 and 0.1985 and 0.1828 and 0.1625 and 0.6454 and 0.6178 and 0.5924
  ClpC1 peak area: 206233 and 279281 and 214864 and 343404 and 327767 and 310653 and 236077 and 257791 and 242759
  Total protein: 1201296 and 1238340 and 1118172 and 1039169 and 1528116 and 1322136 and 532053 and 530512 and 524388
[4]; conc. 1.5625 µM
  ClpC1/Total protein: 0.183 and 0.1832 and 0.1776 and 0.1788 and 0.1391 and 0.1421 and 0.6251 and 0.5883 and 0.5813
  ClpC1 peak area: 199828 and 195826 and 198204 and 278984 and 250174 and 259931 and 291643 and 223291 and 227414
  Total protein: 1593808 and 1218853 and 1280312 and 1117747 and 1407385 and 1394918 and 446304 and 425280 and 447143
[4]; conc. 100 µM
  ClpC1/Total protein: 0.09806 and 0.1539 and 0.02961 and 0.1406 and 0.1399 and 0.1212 and 0.4923 and 0.5713 and 0.5017
  ClpC1 peak area: 152582 and 201776 and 136372 and 183701 and 277792 and 199452 and 19555.5 and 216020 and 1024.1
  Total protein: 199420 and 1403452 and 34585.2 and 1085305 and 1442135 and 1125592 and 373184 and 486260 and 397564
[4]; mean of the measurements, read-out: DC50 Mean
  DC50: 571 nM
[5]; Rat
  Microsomal Stability Rat QH: 43% and 48.3% and 40.9%
[5]; clearance in microsomes
  Microsomal Stability Rat: 40 %Qh
Msm 607; Mycolicibacterium smegmatis, 607, read-out: MIC Msm 607
  MIC: 1.9 ± 0.9 µM (≈ 4.12 µg/mL)
Msm 607; Mycolicibacterium smegmatis, 607, read-out: MIC Msm #607, individual example (Supplementary Table 11)
  MIC: 1.6 µM and 3.4 µg/mL
Msm 607; Mycolicibacterium smegmatis, ATCC607, Set-1, read-out: MIC (Msm ATCC607) Set-1
  MIC: 3.12 µM and 6.78 µg/mL
Msm 607; Mycolicibacterium smegmatis, ATCC607, Set-2, read-out: MIC (Msm ATCC607) Set-2
  MIC: 1.56 µM and 3.39 µg/mL
Msm 607; Mycolicibacterium smegmatis, ATCC607, Set-3, done at a different day than Set 1 and Set 2, read-out: MIC (Msm ATCC607) Set-3
  MIC: 1.56 µM and 3.39 µg/mL
Msm 607; Mycolicibacterium smegmatis, ATCC607, mean of 3 experiments ± SD, read-out: MIC including standard deviations (Msm ATCC607)
  MIC: 2.08 µM and 4.5 µg/mL
[6]
  DC50: 8.3 µM
[7]; individual measurements (source data), listed as 8 (UdSBI-0545), read-out: KD ClpC1-NTD
  Kd: 0.325 nM and 0.439 nM and 0.567 nM and 0.381 nM
[7]; read-out: ClpC1-NTD KD Mean ± SD
  Kd: 0.4 ± 0.1 nM
[8]; Conc. 0.0488281 µM
  Supplementary Figure 2 dose-response value, starvation-induced non-replicating H37Rv cells: 101.903 and 93.5529 and 95.5846
[8]; Conc. 0.195312 µM
  Supplementary Figure 2 dose-response value, starvation-induced non-replicating H37Rv cells: 93.6246 and 84.7332 and 86.7409
[8]; Conc. 0.390625 µM
  Supplementary Figure 2 dose-response value, starvation-induced non-replicating H37Rv cells: 90.2545 and 83.1636 and 86.2868
[8]; Conc. 0.78125 µM
  Supplementary Figure 2 dose-response value, starvation-induced non-replicating H37Rv cells: 91.9834 and 86.6134 and 81.2993
[8]; Conc. 1.5625 µM
  Supplementary Figure 2 dose-response value, starvation-induced non-replicating H37Rv cells: 90.366 and 86 and 85.5618
[8]; Conc. 3.125 µM
  Supplementary Figure 2 dose-response value, starvation-induced non-replicating H37Rv cells: 93.9114 and 69.2927 and 87.5137
[8]; Conc. 6.25 µM
  Supplementary Figure 2 dose-response value, starvation-induced non-replicating H37Rv cells: 87.458 and 76.4871 and 82.7732
[8]; Conc. 25 µM
  Supplementary Figure 2 dose-response value, starvation-induced non-replicating H37Rv cells: 86.1354 and 89.2267 and 87.4022
[8]; Conc. 50 µM
  Supplementary Figure 2 dose-response value, starvation-induced non-replicating H37Rv cells: 91.1707 and 85.8088 and 84.3747
[8]; Conc. 100 µM
  Supplementary Figure 2 dose-response value, starvation-induced non-replicating H37Rv cells: 92.3658 and 81.0443 and 90.6608
[8]; starvation for three weeks, result in words
  inhibitory activity on non-growing Mtb H37Rv: lost their inhibitory activity

From article PMC10914731, “Homo-BacPROTAC-induced degradation of ClpC1 as a strategy against drug-resistant mycobacteria” (Nature Communications, 2024)
